Data: patent US3989837A, “Pharmaceutical compositions” (Chinoin Gyogyszer-es Vegyeszeti Termekek Gyara RT, priority 1972, dated 1976)
“And” between values parts separate entries of the source, which are not always exact repeats. Equal entries are not always repeated.

Experiments:
[1] = Toxicity on mice after oral administration, single dosage (Table 1'); assay type: in vivo; details: mouse, in vivo, po; male mice, p.o., 168 hours; read-out: LD50
Experimental: (§1) The tests were carried out on male mice weighing 25 to 30 g., not starved previously. The compounds were administered in a dosage of 0.2 ml. of suspension per 10 g. body weight. The individual dosages indicated in Table 1' were administered to 10 mice each. The given amount of active agent was added in a single dosage, and the animals were dept under observation for 7 days (= 168 hours). The number of deceased animals was recorded daily.
(§2) The LD50 values were calculated according to the Litchfied-Wilcoxon method, by also taking into account the number of animals perished within 168 hours from the administration.

mice = assay: as above; assay type: in vivo; details: male mice
Experimental: as §1, §2

kaoline oedema = assay: Rat paw oedema, kaoline (Table 4'); assay type: in vivo; details: female rats; for Effect % (average), inhibition of kaoline oedema: average of repeated tests
Experimental: (§3) Inflammatory plantar oedema was provided by the subplantar injection of 0.1 ml. of 5% kaoline or 0.5% carrageenine on female rats each weighing 110 to 130 g., starved for 24 hours. The dorsoplantar diameter of the test animals was measured with a double-armed instrument prior to the administration of the phlogistic (basic value) and at regular intervals (at 2, 3.5 and 5 hours for kaoline and at 1.5, 3 and 4.5 hours for carrageenine) after the administration of the phlogistic. […] The treatment was always carried out 1 hour before the administration of the phlogistic. The animals belonging to the control group received suspending agent only. In order to ensure a uniform hydration grade, 1 ml. of tap water was administered through a stomach tube to the animals simultaneously with the administration of the active agent. During the test period the animals were allowed to consume water ad libitum.
(§4) The effect was calculated from the difference of the increase in paw diameter observed in the treated and control groups. The daga are given as percentage efficiacy.
(§5) The significance level was examined by Student's t test. The significance levels are marked by asterisks; the values of the repeated tests are given separately.

carrageenine oedema = assay: Rat paw oedema, carrageenine (Table 5'); assay type: in vivo; details: female rats, p.o. 10 mg./kg.; for Effect % (average), inhibition of carrageenine oedema: average of repeated tests
Experimental: as §3, §4, §5

cotton granuloma = assay: Cotton granuloma, comparison with Indomethacine (Table 6); assay type: in vivo, rat; details: male rats, oral daily 4 mg./kg., 7 days, p 0.001
Experimental: Two cotton beads, each weighing 23 to 27 mg., were implanted under the dorsal skin of the animals in aether narcosis, under semisterile conditions, along both sides of the vertebral column. The compound under examination was administered twice a day for 7 days in oral dosages of 0.2 ml./100 g. body weight, in a suspension formed with 1% methyl cellulose. On the 8th day the animals were killed by etheral overnarcosis, the granulomes were removed, dried at 50° C for 5 hours, and then weighed. The animals belonging to the control group were treated similarly, but they received suspending agent only. The percentage efficiacy was calculated from the weight differences of the granuloma tissues observed for the treated and control groups. The significance was examined by the t test.

writhing syndrome = assay: Writhing syndrome, comparison with Indomethacine (Table 7); assay type: in vivo, mouse; details: male mice
Experimental: The tests were carried out on male mice each weighing 15 to 18 g., starved for 16 hours prior to treatment. 0.1 ml./10 g. body weight of 1% acetic acid solution was injected intraperitoneally to the animals. The sterile inflammation occurred on the action of acetic acid provoked a characteristic syndrome (writhing). The number of writhings was counted during an observation period of 20 minutes, starting 15 minutes after the administration of acetic acid. The substance to be tested was administered orally as a suspension, in a dosage of 0.1 ml./10 g. body weight 2 to 4 hours before the acetic acid injection. The average number of writhings observed for the treated animals was compared to that observed in the control group, and the percentage inhibition was calculated from the difference.

rats = assay: Ulcerogeneous action on rats, comparison with Indomethacine (Table 3'); details: male rats, 5 days

SMILES: COc1ccc2c(c1)c(CC(=O)O)c(C)n2C(=O)c1ccc(Cl)cc1 [Indomethacine, reference compound]
- LD50 at 168 h [1]: 140 mg/kg
- Perished animals/treated animals (mice; oral 50 mg./kg., 24 h): 0/10
- Perished animals/treated animals (mice; oral 50 mg./kg., 48 h): 0/10
- Perished animals/treated animals (mice; oral 50 mg./kg., 72 h): 0/10
- Perished animals/treated animals (mice; oral 50 mg./kg., 96 h): 0/10
- Perished animals/treated animals (mice; oral 50 mg./kg., 120 h): 0/10
- Perished animals/treated animals (mice; oral 50 mg./kg., 144 h): 0/10
- Perished animals/treated animals (mice; oral 50 mg./kg., 168 h): 0/10
- Perished animals/treated animals (mice; oral 150 mg./kg., 24 h): 0/10
- Perished animals/treated animals (mice; oral 150 mg./kg., 48 h): 0/10
- Perished animals/treated animals (mice; oral 150 mg./kg., 72 h): 0/10
- Perished animals/treated animals (mice; oral 150 mg./kg., 96 h): 2/10
- Perished animals/treated animals (mice; oral 150 mg./kg., 120 h): 4/10
- Perished animals/treated animals (mice; oral 150 mg./kg., 144 h): 6/10
- Perished animals/treated animals (mice; oral 150 mg./kg., 168 h): 6/10
- Perished animals/treated animals (mice; oral 300 mg./kg., 24 h): 0/10
- Perished animals/treated animals (mice; oral 300 mg./kg., 48 h): 0/10
- Perished animals/treated animals (mice; oral 300 mg./kg., 72 h): 4/10
- Perished animals/treated animals (mice; oral 300 mg./kg., 96 h): 6/10
- Perished animals/treated animals (mice; oral 300 mg./kg., 120 h): 8/10
- Perished animals/treated animals (mice; oral 300 mg./kg., 144 h): 10/10
- Perished animals/treated animals (mice; oral 300 mg./kg., 168 h): 10/10
- Perished animals/treated animals (mice; oral 500 mg./kg., 24 h): 0/10
- Perished animals/treated animals (mice; oral 500 mg./kg., 48 h): 2/10
- Perished animals/treated animals (mice; oral 500 mg./kg., 72 h): 4/10
- Perished animals/treated animals (mice; oral 500 mg./kg., 96 h): 7/10
- Perished animals/treated animals (mice; oral 500 mg./kg., 120 h): 9/10
- Perished animals/treated animals (mice; oral 500 mg./kg., 144 h): 10/10
- Perished animals/treated animals (mice; oral 500 mg./kg., 168 h): 10/10
- Perished animals/treated animals (mice; oral 700 mg./kg., 24 h): 1/10
- Perished animals/treated animals (mice; oral 700 mg./kg., 48 h): 5/10
- Perished animals/treated animals (mice; oral 700 mg./kg., 72 h): 5/10
- Perished animals/treated animals (mice; oral 700 mg./kg., 96 h): 7/10
- Perished animals/treated animals (mice; oral 700 mg./kg., 120 h): 9/10
- Perished animals/treated animals (mice; oral 700 mg./kg., 144 h): 9/10
- Perished animals/treated animals (mice; oral 700 mg./kg., 168 h): 10/10
- Perished animals/treated animals (mice; oral 900 mg./kg., 24 h): 1/10
- Perished animals/treated animals (mice; oral 900 mg./kg., 48 h): 4/10
- Perished animals/treated animals (mice; oral 900 mg./kg., 72 h): 6/10
- Perished animals/treated animals (mice; oral 900 mg./kg., 96 h): 8/10
- Perished animals/treated animals (mice; oral 900 mg./kg., 120 h): 10/10
- Perished animals/treated animals (mice; oral 900 mg./kg., 144 h): 10/10
- Perished animals/treated animals (mice; oral 900 mg./kg., 168 h): 10/10
- Effect %, inhibition of kaoline oedema (kaoline oedema; p.o. 10 mg./kg., 2 hours): 14.7% and 19.7%
- Effect % (average), inhibition of kaoline oedema (kaoline oedema; p.o. 10 mg./kg., 2 hours): 17.2%
- Effect %, inhibition of kaoline oedema (kaoline oedema; p.o. 10 mg./kg., 3.5 hours): 19.5% and 27.6%
- Effect % (average), inhibition of kaoline oedema (kaoline oedema; p.o. 10 mg./kg., 3.5 hours): 23.5%
- Effect %, inhibition of kaoline oedema (kaoline oedema; p.o. 10 mg./kg., 5 hours): 21.2% and 27.2%
- Effect % (average), inhibition of kaoline oedema (kaoline oedema; p.o. 10 mg./kg., 5 hours): 24.2%
- Effect %, inhibition of kaoline oedema (kaoline oedema; p.o. 25 mg./kg., 2 hours): 33.7% and 32.7%
- Effect % (average), inhibition of kaoline oedema (kaoline oedema; p.o. 25 mg./kg., 2 hours): 33.2%
- Effect %, inhibition of kaoline oedema (kaoline oedema; p.o. 25 mg./kg., 3.5 hours): 35.1% and 37.1%
- Effect % (average), inhibition of kaoline oedema (kaoline oedema; p.o. 25 mg./kg., 3.5 hours): 36.1%
- Effect %, inhibition of kaoline oedema (kaoline oedema; p.o. 25 mg./kg., 5 hours): 32.1% and 44.4%
- Effect % (average), inhibition of kaoline oedema (kaoline oedema; p.o. 25 mg./kg., 5 hours): 38.2%
- Effect %, inhibition of carrageenine oedema (carrageenine oedema; 1.5 hours): 24.1% and 20.6%
- Effect % (average), inhibition of carrageenine oedema (carrageenine oedema; 1.5 hours): 22.3%
- Effect %, inhibition of carrageenine oedema (carrageenine oedema; 3 hours): 32.9% and 28.8%
- Effect % (average), inhibition of carrageenine oedema (carrageenine oedema; 3 hours): 30.8%
- Effect %, inhibition of carrageenine oedema (carrageenine oedema; 4.5 hours): 19.8% and 20.9%
- Effect % (average), inhibition of carrageenine oedema (carrageenine oedema; 4.5 hours): 20.3%
- Effect %, cotton granuloma (cotton granuloma): 36.0%
- Effect %, writhing (writhing syndrome; p.o. 5 mg./kg., 2 hours): 58.2% and 61.1%
- Effect % average, writhing (writhing syndrome; p.o. 5 mg./kg., 2 hours): 59.6%
- Effect %, writhing (writhing syndrome; p.o. 5 mg./kg., 4 hours): 65.7% and 43.7%
- Effect % average, writhing (writhing syndrome; p.o. 5 mg./kg., 4 hours): 54.7%
- Effect %, writhing (writhing syndrome; p.o. 12.5 mg./kg., 2 hours): 73.6% and 67.2%
- Effect % average, writhing (writhing syndrome; p.o. 12.5 mg./kg., 2 hours): 70.4%
- Effect %, writhing (writhing syndrome; p.o. 12.5 mg./kg., 4 hours): 85.8% and 70.0%
- Effect % average, writhing (writhing syndrome; p.o. 12.5 mg./kg., 4 hours): 77.9%
- Animals having lesions on the intestines (rats; oral 4 mg./kg.): 5%
- Perishment (rats; oral 4 mg./kg.): 0/20
- Survivals (rats; oral 4 mg./kg.): 20
- Ulcer index (rats; oral 4 mg./kg.): 0.45
- Ulcer number (rats; oral 4 mg./kg.): 0.1
- Animals having lesions on the intestines (rats; oral 8 mg./kg.): 40%
- Perishment (rats; oral 8 mg./kg.): 10/20
- Survivals (rats; oral 8 mg./kg.): 10
- Ulcer index (rats; oral 8 mg./kg.): 0.3
- Ulcer number (rats; oral 8 mg./kg.): 0
